In ChEMBL document CHEMBL5729301, “ASK1 inhibitor compounds and uses thereof” (2022):

Target: T1, Mitogen-activated protein kinase kinase kinase 5 (Homo sapiens, UniProt Q99683)
T1 sequence (Q99683 whole entry): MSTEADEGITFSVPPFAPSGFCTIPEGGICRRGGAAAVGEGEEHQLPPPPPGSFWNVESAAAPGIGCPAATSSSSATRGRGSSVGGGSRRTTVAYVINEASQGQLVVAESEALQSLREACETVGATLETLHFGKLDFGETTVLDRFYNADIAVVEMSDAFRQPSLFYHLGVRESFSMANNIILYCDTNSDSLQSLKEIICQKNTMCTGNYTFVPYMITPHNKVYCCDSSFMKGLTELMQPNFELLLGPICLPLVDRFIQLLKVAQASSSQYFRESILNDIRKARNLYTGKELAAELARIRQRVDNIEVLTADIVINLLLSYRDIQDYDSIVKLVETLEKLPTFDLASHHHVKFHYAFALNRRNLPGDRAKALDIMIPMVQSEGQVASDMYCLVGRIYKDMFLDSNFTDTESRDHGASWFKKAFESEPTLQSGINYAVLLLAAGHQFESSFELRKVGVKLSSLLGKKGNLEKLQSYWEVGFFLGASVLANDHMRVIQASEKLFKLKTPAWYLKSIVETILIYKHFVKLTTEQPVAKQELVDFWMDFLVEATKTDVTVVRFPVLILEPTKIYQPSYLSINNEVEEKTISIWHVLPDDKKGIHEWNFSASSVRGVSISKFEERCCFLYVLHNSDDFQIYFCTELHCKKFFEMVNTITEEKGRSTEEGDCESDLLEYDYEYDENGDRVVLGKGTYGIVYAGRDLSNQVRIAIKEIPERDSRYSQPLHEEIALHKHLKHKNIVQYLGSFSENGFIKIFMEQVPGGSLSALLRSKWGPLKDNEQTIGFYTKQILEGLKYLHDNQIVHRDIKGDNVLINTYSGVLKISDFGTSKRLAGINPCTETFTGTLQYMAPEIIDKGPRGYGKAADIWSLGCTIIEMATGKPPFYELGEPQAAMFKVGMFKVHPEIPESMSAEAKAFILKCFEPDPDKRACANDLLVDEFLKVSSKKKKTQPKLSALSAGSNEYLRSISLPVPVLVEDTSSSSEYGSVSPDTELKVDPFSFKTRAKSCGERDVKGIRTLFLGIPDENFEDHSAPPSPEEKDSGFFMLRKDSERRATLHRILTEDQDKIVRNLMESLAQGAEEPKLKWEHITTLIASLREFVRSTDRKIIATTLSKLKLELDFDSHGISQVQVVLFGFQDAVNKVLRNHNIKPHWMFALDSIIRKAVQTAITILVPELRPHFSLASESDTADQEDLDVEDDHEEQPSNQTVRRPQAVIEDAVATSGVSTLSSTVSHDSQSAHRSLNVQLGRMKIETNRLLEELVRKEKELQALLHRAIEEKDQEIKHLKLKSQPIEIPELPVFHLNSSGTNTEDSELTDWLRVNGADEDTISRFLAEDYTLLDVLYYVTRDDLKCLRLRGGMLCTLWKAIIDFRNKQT
Experiment: Kinase Assay: The ASK1 enzymatic assay was run following Promega ASK1 Kinase Enzyme System (Cat #V3881). The kit provides the protocol, enzymes and all reagents necessary to run an assay.The compounds, enzyme, substrate and ATP were diluted in provided assay buffer. The final concentration of the enzyme was 50 nM, substrate (Myelin basic protein) 1 μg/mL and ATP 10 μM. The compound and the enzyme were pre-incubated in a 384-well white solid bottom plate (Greiner, Cat #784075) for 10 minutes. After incubation, the substrate and ATP were added and incubated for an additional 60 minutes. After 60 minutes, ADP-Glo™ was added and the plate was incubated for another 40 minutes. After 40 minutes, Kinase Detection Reagent was added and the plate was incubated for 45 minutes. After 45 minutes, the plate was read on a Perkin Elmer EnVision using luminescence read (0.5 seconds/well).

Work on `CC(=O)Nc1cccc(-c2cc3c(s2)C(=O)N(c2cccc(-c4nncn4C4CC4)n2)C3)c1` yielded an IC50 of less than 1000 nM.
